For series [1] the following is noted: cited from earlier work.
The nature of series [2]: Relative stability of the crystalline forms (cooling rate observations in toluene). In kind it is physicochemical. The following applies: concluded from slow versus faster cooling in toluene and the conversion observations. The source says:
Slow cooling a solution of letrozole in toluene gave mainly Form I, whereas faster cooling a solution in toluene gave Form II.
Indeed, due to the relative instability of Form II, the use of Form II or a mixture of Forms I and II could be liable to conversion during storage to form some or more Form I, respectively. Such a variation in crystalline form is generally undesirable in pharmaceuticals as the different forms can have different properties, e.g. bio-absorption, solubility, degradation, etc. Thus, while the use of either crystalline form in a pharmaceutical composition is contemplated, making the composition from a crystalline letrozole that has an XRPD substantially corresponding to FIG. 1 is preferred.

The nature of series [3]: Crystal form conversion during annealing. It is filed as physicochemical. To be noted: annealing above 140° C.
Series [4] in a line: Crystal form conversion on stirring in solvent. It is filed as physicochemical.

The source of these data is US20070259935A1, “CRYSTALLINE FORMS OF LETROZOLE AND PROCESSES FOR MAKING THEM” (priority 2006, published 2007).

SMILES strings stand for the structures. Entries after “also recorded” stand apart in the source; their conditions may differ.

With `N#Cc1ccc(C(c2ccc(C#N)cc2)n2cncn2)cc1` [Letrozole, 4,4′-(H-1,2,4-Triazol-1-ylmethylene)dibenzonitrile], the solubility in dichloromethane result in series [1] (dichloromethane) is “freely soluble”. In addition, the solubility in ethanol entry in series [1] (ethanol) is on record as “slightly”. Also, the solubility in water result in series [1] (water) is on record as “practically insoluble”.
Take `N#Cc1ccc(C(c2ccc(C#N)cc2)n2cncn2)cc1` [Form II, 4,4′-(H-1,2,4-Triazol-1-ylmethylene)dibenzonitrile]: the “kinetic versus thermodynamic form / relative stability” value in series [2] is “kinetic form; also recorded: generally less stable than the Form I”. In series [3], the “conversion of crystalline form during annealing” value is on record as “(partially) converted into form I”. Also, the “conversion of crystalline form when stirred in ethanol” value in series [4] (stirred in ethanol at room temperature) is on record as “(partially) converted into Form I”.
For `N#Cc1ccc(C(c2ccc(C#N)cc2)n2cncn2)cc1` [Form I, 4,4′-(H-1,2,4-Triazol-1-ylmethylene)dibenzonitrile], the “kinetic versus thermodynamic form / relative stability” value in series [2] is on record as “thermodynamically stable form”. For the same molecule, the “conversion of crystalline form during annealing” value in series [3] was “does not convert”. Besides, the “conversion of crystalline form when stirred in a solvent for 2 weeks” value in series [4] (stirred in a solvent for 2 weeks) is “does not convert into Form II”. In addition, the “conversion of crystalline form when stirred in various solvents” value in series [4] (stirred in various solvents) is given as “does not convert”.
